Data reported in US20240325364A1, “COMPOSITIONS FOR USE IN THE TREATMENT OF METABOLIC SYNDROME” (Nottingham Trent University, priority 2021, published 2024).
Entries after “also recorded” stand apart in the source; their conditions may differ.

How the values were obtained:
[1] = tested on: C2C12 skeletal muscle cells; test: Glucose uptake (2-deoxy glucose) in C2C12 skeletal muscle cells; type: cell-based; conditions: C2C12 cells 5 days in GLT DMEM medium with 100 μM compound; 100 nM insulin 1 h
Protocol: C2C12 skeletal muscle cell myotubes were cultured for 5 days in standard DMEM tissue culture media or GLT DMEM media. The media were either used without further supplementation (used as controls) or were independently supplemented with 100 μM of a compound (M4, M8, M14, M28, and M38 investigated). Myotubes were then serum-starved overnight in DMEM supplemented with 5 mM glucose, and thereafter incubated for 1 h in glucose-free DMEM or in glucose-free DMEM supplemented with 100 nM insulin stimulant. The media were thereafter replaced with phosphate buffered saline (PBS) containing 0.125 mM 2-deoxy glucose (2-DG). Glucose uptake reactions were conducted for 30 min, and then terminated by addition of stop buffer (0.4 M HCl+2% dodecyl trimethyl ammonium bromide). 2-deoxyglucose-6-phosphate (2DG6P) detection reagent was applied, and data were acquired using a CLARIOStar luminometer (BMG Labtech, Ortenberg, Germany).

[2] = tested on: C2C12 skeletal muscle cells; test: Toxicity testing: C2C12 cell viability (Calcein AM fluorescence); type: cell-based; conditions: C2C12 myotubes cultured 5 days in GLT RPMI-1640 medium (28 mM glucose, 200 μM palmitic acid, 200 μM oleic acid) with 100 μM compound
Protocol: C2C12 muscle cell myotubes were cultured for 5 days in the following […] culture media: a control RPMI-1640 medium; glucolipotoxic (GLT) RPMI-1640 medium (28 mM glucose, 200 μM palmitic acid and 200 μM oleic acid) supplemented with 100 μM of M4; GLT RPMI-1640 medium supplemented with 100 µM of M8; GLT RPMI-1640 medium supplemented with 100 μM of M14; GLT RPMI-1640 medium supplemented with 100 μM of M28; and GLT RPMI-1640 medium supplemented with 100 μM of M38. Following culture, media were aspirated and cells washed 3 times in Krebs-Ringer buffer (KRB). A final concentration of […] Calcein AM Cell Viability Dye (ThermoFischer) in KRB was loaded for 1 h before washing again with KRB. Cell viability was measured via fluorescence, with excitation and emission at 490 nm and 520 nm, respectively.

[3] = tested on: C2C12 skeletal muscle cells; test: Reactive species scavenging in C2C12 cells (DCFDA fluorescence); type: cell-based; conditions: C2C12 cells in GLT RPMI-1640 medium 5 days, 100 μM compound
Protocol: C2C12 muscle cell myotubes were cultured for 5 days in standard RPMI-1640 tissue culture media or GLT RPMI-1640 media. Corresponding media were independently supplemented with 100 μM of a compound (M4, M14, M8, M28, and M38 investigated). Non-supplemented standard and GLT RPMI-1640 media were also retained as controls. Cells were thereafter washed 3 times in KRB and 20 μM 2′,7′-dichlorofluorescein diacetate (DCFDA), a cell permeant fluorogenic dye that measures hydroxyl, peroxyl and other ROS, was loaded for 1 h. Reactive species detection was measured via fluorescence, with excitation at 495 nm and emission at 530 nm.

[4] = tested on: High fat-fed mice; test: Effect on body weight in an in vivo model of obesity; conditions: high fat diet mice, 45 mg/kg body weight/day via drinking water, 10 weeks
Protocol: High fat-fed mice were used as an animal model of obesity. The body weights of the mice were monitored over a period of 10 weeks. The following three sets of mice were used in the study: • Non-high fat-fed mice that were administered a normal diet. • High fat-fed mice that were administered a high fat diet. • High fat-fed mice that were administered a high fat diet alongside 45 mg/kg body weight/day of compound M8, which was administered via drinking water.
High fat-fed mice were fed the following high fat diet from Research Diets: (60% fat; D12492). Non-high fat-fed mice were used as a control and were fed the following low fat diet from Research Diets: (10% fat, D12450B). The body weights of the mice were measured throughout.

Compound	insulin-stimulated glucose uptake per total cellular protein [1]	cell viability (% change relative to control) [2]	intracellular reactive species (% change relative to control) [3]	toxic effects on the animals [4]	body weight ([4]; vs high fat-fed mice without compound, 45 mg/kg/day)
FC(F)(F)c1ccc(-n2ccnc2)nc1 [M4, 2-(1H-imidazol-1-yl)-5-(trifluoromethyl)pyridine]	reverse glucolipotoxic inhibition of insulin-stimulated glucose uptake	none of the tested compounds (M4, M8, M14, M28, and M38) reduce C2C12 skeletal muscle cell viability; also recorded: non-toxic to the cells	reduces GLT-associated reactive species levels	–	–
CNCc1ccc(-c2ccco2)nc1 [M8, 6-(2-furanyl)-N-methyl-3-pyridinemethanamine]	reverse glucolipotoxic inhibition of insulin-stimulated glucose uptake	none of the tested compounds (M4, M8, M14, M28, and M38) reduce C2C12 skeletal muscle cell viability; also recorded: non-toxic to the cells	reduces GLT-associated reactive species levels	no toxic effects on the animals	significantly reduces the body weight; also recorded: significant reduction of body weight
CNCc1cc(-c2ccccc2)no1 [M14, 5-[(methylamino)methyl]-3-phenylisoxazole]	reverse glucolipotoxic inhibition of insulin-stimulated glucose uptake	none of the tested compounds (M4, M8, M14, M28, and M38) reduce C2C12 skeletal muscle cell viability; also recorded: non-toxic to the cells	reduces GLT-associated reactive species levels	–	–
NCc1cc(-c2ccccc2)no1 [M28, (3-phenyl-5-isoxazolyl)methanamine]	reverse glucolipotoxic inhibition of insulin-stimulated glucose uptake	none of the tested compounds (M4, M8, M14, M28, and M38) reduce C2C12 skeletal muscle cell viability; also recorded: non-toxic to the cells	reduces GLT-associated reactive species levels	–	–
OCc1ccc(Cn2ccnc2)cc1 [M38, [4-(1H-imidazol-1-ylmethyl)phenyl]methanol]	reverse glucolipotoxic inhibition of insulin-stimulated glucose uptake	none of the tested compounds (M4, M8, M14, M28, and M38) reduce C2C12 skeletal muscle cell viability; also recorded: non-toxic to the cells	reduces GLT-associated reactive species levels	–	–
